Laboratory results as given in patent publication US4442044A, “Process for preparing monoesters and diesters of N-alkyl substituted amino methyl phosphonic acid” (priority 1983, dated 1984).

Tests used:
Experiment in all cases: post-emergent herbicidal activity, greenhouse
Type in all cases: in vivo
[1] = tested on: Crabgrass; settings: Table II
Method in brief: (§1)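 Seeds or propagules sown in compacted top soil, grown 2–3 weeks in greenhouse, then sprayed with compound solution/suspension containing ~0.4% emulsifier at tabulated rates. Injury scored visually versus untreated controls at ~2 and 4 weeks after treatment, expressed as a herbicidal activity index.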

[2] = tested on: Lambsquarters
Method in brief: as §1

[3] = tested on: Rice; settings: Table II
Method in brief: as §1

[4] = tested on: Sorghum; settings: Table II
Method in brief: as §1

[5] = tested on: Sugar Beet; settings: Table II
Method in brief: as §1

[6] = tested on: Downy Brome
Method in brief: as §1

[7] = tested on: Wheat; settings: Table II
Method in brief: as §1

[8] = tested on: Panicum Spp; settings: Table II
Method in brief: as §1

[9] = tested on: Velvetleaf
Method in brief: as §1

[10] = tested on: Wild Buckwheat; settings: Table II
Method in brief: as §1

[11] = tested on: Canada Thistle; settings: Table I, 4 WAT
Method in brief: as §1

[12] = tested on: Barnyardgrass
Method in brief: as §1

[13] = tested on: Johnsongrass; settings: Table I, 4 WAT
Method in brief: as §1

[14] = tested on: Hemp Sesbania; settings: Table II
Method in brief: as §1

[15] = tested on: Quackgrass; settings: Table I, 4 WAT
Method in brief: as §1

[16] = tested on: Morningglory
Method in brief: as §1

[17] = tested on: Cocklebur
Method in brief: as §1

[18] = tested on: Yellow Nutsedge; settings: Table I, 4 WAT
Method in brief: as §1

[19] = tested on: Smartweed
Method in brief: as §1

[20] = tested on: Soybean; settings: Table II
Method in brief: as §1

Measured: post-emergent herbicidal activity index

CCOC(=O)CNCP(=O)(O)OC(C)C(=O)OC (stereo not drawn) [Example 28, propanoic acid, 2-[[[[(2-ethoxy-2-oxoethyl)amino]methyl]hydroxyphosphinyl]oxy]-, methyl ester]
1 (25-49% control): [2]; Table II, 4 WAT, 5.6 kg/h | [6]; Table I, 4 WAT, 5.6 kg/h | [6]; Table I, 4 WAT, 11.2 kg/h | [7]; 4 WAT, 5.6 kg/h | [11]; 5.6 kg/h | [11]; 11.2 kg/h | [12]; Table II, 2 WAT, 1.12 kg/h | [16]; Table I, 4 WAT, 5.6 kg/h | [16]; Table II, 2 WAT, 1.12 kg/h | [17]; Table I, 4 WAT, 5.6 kg/h | [18]; 5.6 kg/h | [19]; Table II, 4 WAT, 5.6 kg/h | [20]; 2 WAT, 1.12 kg/h | [20]; 4 WAT, 5.6 kg/h
3 (75-99% control): [1]; 4 WAT, 5.6 kg/h | [2]; Table I, 4 WAT, 11.2 kg/h | [12]; Table II, 4 WAT, 5.6 kg/h | [13]; 11.2 kg/h | [14]; 4 WAT, 5.6 kg/h | [16]; Table I, 4 WAT, 11.2 kg/h | [18]; 11.2 kg/h | [19]; Table I, 4 WAT, 11.2 kg/h
0 (0-24% control): [2]; Table I, 4 WAT, 5.6 kg/h | [2]; Table II, 2 WAT, 1.12 kg/h | [3]; 2 WAT, 1.12 kg/h | [4]; 2 WAT, 1.12 kg/h | [5]; 2 WAT, 1.12 kg/h | [5]; 4 WAT, 5.6 kg/h | [6]; Table II, 2 WAT, 1.12 kg/h | [6]; Table II, 4 WAT, 5.6 kg/h | [7]; 2 WAT, 1.12 kg/h | [8]; 2 WAT, 1.12 kg/h | [9]; Table I, 4 WAT, 5.6 kg/h | [9]; Table II, 2 WAT, 1.12 kg/h | [9]; Table II, 4 WAT, 5.6 kg/h | [10]; 2 WAT, 1.12 kg/h | [10]; 4 WAT, 5.6 kg/h | [14]; 2 WAT, 1.12 kg/h | [15]; 5.6 kg/h | [17]; Table II, 2 WAT, 1.12 kg/h | [19]; Table I, 4 WAT, 5.6 kg/h | [19]; Table II, 2 WAT, 1.12 kg/h
2 (50-74% control): [1]; 2 WAT, 1.12 kg/h | [3]; 4 WAT, 5.6 kg/h | [4]; 4 WAT, 5.6 kg/h | [8]; 4 WAT, 5.6 kg/h | [9]; Table I, 4 WAT, 11.2 kg/h | [12]; Table I, 4 WAT, 5.6 kg/h | [12]; Table I, 4 WAT, 11.2 kg/h | [13]; 5.6 kg/h | [15]; 11.2 kg/h | [16]; Table II, 4 WAT, 5.6 kg/h | [17]; Table I, 4 WAT, 11.2 kg/h | [17]; Table II, 4 WAT, 5.6 kg/h
